Data reported in PMC12339163, “Combining Plant Bioactives With Antibiotics for Enhanced Antibiofilm Activity Against Uropathogenic Staphylococcus spp. and Cytotoxicity Evaluation” (Advances in Pharmacological and Pharmaceutical Sciences, 2025).
≈ marks a conversion by molar mass, not a printed value. Where “and” joins values, the source holds several entries; their conditions need not be identical. Equal values may be shown once. Read-outs that look alike come from different tables or passages of the source.

Key:
S. aureus = experiment: MIC and MBC, broth microdilution; format: cell-based, Staphylococcus aureus; settings: Staphylococcus aureus, geometric mean, S. aureus (n = 3); for MBC: read-out: MBC; for MIC: read-out: MIC
Method: (§1) Seven clinical isolates of Staphylococcus spp. including 2 S. aureus, 3 S. saprophyticus, and 2 S. epidermidis were used. They were isolated from urine samples in our previous study. Two reference strains (S. aureus ATCC1026 and S. epidermidis ATCC35984) obtained from the American Type Culture Collection were also included. They were kept in the mixture of glycerol and Mueller Hinton Broth (MHB) (1:1) at −20°C, and the activation was achieved using the streak technique on Mueller Hinton agar (MHA) medium.
(§2) The MICs of ATBs and NPs were determined by the broth microdilution method as previously described. NPs and ATBs were, respectively, prepared at 4096 µg/mL and 512 µg/mL and serially diluted twofold with MHB in a 96-well microplate at a volume of 100 µL. Then, the wells were filled with 100 µL of inoculum (1.5 × 10^6 CFU/mL) to give final concentrations ranging from 1024 µg/mL to 0.5 µg/mL and 128 µg/mL to 0.062 µg/mL of NPs and ATBs, respectively. The microplates were incubated for 24 h at 37°C. Wells containing only bacterial inoculum were used as the negative control. After incubation, a volume of 40 µL of INT solution (0.2 mg/mL) was added to each well, and the microplate was incubated at 37°C for 30 min. Viable bacteria cells change the yellow dye of INT to a pink color. The MIC was considered as the lowest concentration of the sample at which there was no change in the coloration of the medium, corresponding to the complete inhibition of microbial growth.
(§3) All tests were performed in triplicate.

S. saprophyticus = experiment: MIC and MBC, broth microdilution; format: cell-based, Staphylococcus saprophyticus; settings: Staphylococcus saprophyticus, geometric mean, S. saprophyticus (n = 3); for MBC: read-out: MBC; for MIC: read-out: MIC
Method: as §1, §2, §3

S. aureus biofilm [1] = experiment: Biofilm inhibition assay (MBIC, MTT); format: cell-based, Staphylococcus aureus; settings: Staphylococcus aureus, 24 h; geometric mean, S. aureus (n = 3)
Method: (§4) The biofilm formation inhibitory activity of NPs and ATBs was carried out according to the method previously described. A total of 100 µL of bacterial inoculum (1.5 × 10^6 CFU/mL) was used, and 100 µL of each sample was added to the microplate to achieve final concentrations ranging from 0.25 µg/mL to 128 µg/mL for ATBs and from 8 µg/mL to 1024 µg/mL for NPs. Then, the microplate was incubated at 37°C for 24 h. After incubation, the plates were gently emptied and washed three times with a phosphate buffer solution at pH 7.2. Then, the MTT solution (0.5 mg/mL) prepared in PBS was introduced into each well, and the microplate was further incubated at 37°C for 24 h. Untreated wells containing bacterial suspension and MHB supplemented with 1% glucose were considered positive controls, and wells containing only MHB+1% glucose without bacteria were used as blanks. After incubation, the MTT solution was aspirated, then 150 µL of DMSO was introduced to dissolve the formazan crystal formed by viable bacteria, and the optical density (OD) was measured at 570 nm using a microplate reader (VERSA-max). The percentage of biofilm inhibition was calculated using the formula below, and the minimal biofilm inhibitory concentration (MBIC) was recorded as the lowest concentration of NPs or ATBs that inhibited 100% of biofilm:(1) % biofilm inhibition=ODcontrol−ODblank−ODtest−ODblank/ODcontrol−ODblank×100.

S. saprophyticus biofilm = experiment: Biofilm inhibition assay (MBIC, MTT); format: cell-based, Staphylococcus saprophyticus; settings: Staphylococcus saprophyticus, 24 h; geometric mean, S. saprophyticus (n = 3)
Method: as §4

S. epidermidis biofilm [2] = experiment: Biofilm inhibition assay (MBIC, MTT); format: cell-based, Staphylococcus epidermidis; settings: Staphylococcus epidermidis, 24 h; geometric mean, S. epidermidis (n = 3)
Method: as §4

S. aureus biofilm [3] = experiment: Biofilm eradication assay (MBEC, MTT); format: cell-based, Staphylococcus aureus; settings: Staphylococcus aureus, 24 h; geometric mean, S. aureus (n = 3)
Method: (§5) The determination of the biofilm eradication potential of NPs and ATBs was performed as previously described. Briefly, 100 µL of bacterial inoculum (1.5 × 10^6 CFU/mL) and 100 µL of MHB + 1% glucose were introduced into the microplate, incubated at 37°C for 24 h, and the microplate was gently emptied and washed three times with PBS. Then, 200 µL of ATBs or NPs at respective concentrations ranging from 8 to 1024 µg/mL and from 16 to 2048 µg/mL were incubated at 37°C for 24 h. Once incubation was completed, the microplate was processed as described above, and the percentage of biofilm eradication was calculated using the formula below. The minimal biofilm eradicating concentration (MBEC) was recorded as the lowest concentration of the test sample that reduces 100% of biofilm:(2) % biofilm eradication=ODcontrol−ODblank−ODtest−ODblank/ODcontrol−ODblank×100.

S. epidermidis biofilm [4] = experiment: Biofilm eradication assay (MBEC, MTT); format: cell-based, Staphylococcus epidermidis; settings: Staphylococcus epidermidis, 24 h; geometric mean, S. epidermidis (n = 3)
Method: as §5

[5] = tested on: Staphylococcus aureus biofilm; experiment: Checkerboard combination assay, biofilm inhibition; format: cell-based; settings: for MBIC alone, NPs: natural product alone
Method: (§6) The effect of the combination of ATBs with NPs on biofilm formation was evaluated by determining the FICI, as described above for planktonic cells, except that the MHB was supplemented with 1% glucose.
(§7) The lowest MBICs of ATBs or NPs that inhibited metabolic activity in the biofilm were determined as described above. The FICI was used to perform the effect of combination and calculated as follows: FICI: (MBIC of ATBs in combinations/MBIC of ATBs alone) + (MBIC of NP in the combinations/MBIC of NP alone). FICI was interpreted as indicated above.

[6] = tested on: Staphylococcus epidermidis biofilm; experiment: Checkerboard combination assay, biofilm inhibition; format: cell-based
Method: as §6, §7

[7] = tested on: Staphylococcus saprophyticus biofilm; experiment: Checkerboard combination assay, biofilm inhibition; format: cell-based
Method: as §6, §7

[8] = tested on: Staphylococcus epidermidis biofilm; experiment: Checkerboard combination assay, biofilm eradication; format: cell-based; settings: for MBEC Alone NPs: natural product alone
Method: The effect of the combination of ATBs with NPs on the preformed biofilm was evaluated by determining the FICI, as described above for biofilm formation, with slight modifications. After biofilm formation for 24 h, the plate was gently emptied and washed three times with PBS. Then, 50 µL of ATBs and 50 µL of NPs were introduced to the plate. The final concentration ranges from 0.0625 to 128 µg/mL and from 4 to 512 µg/mL for ATBs and NPs, respectively, and is incubated at 37°C for 24 h. After incubation, the medium was gently removed, and the plate was washed three times with PBS. At the end of the incubation time, the MTT reduction assay was performed, and the MBEC was determined. To assess the effect of the combination, the FICI was calculated and interpreted as described above.

[9] = S. aureus, biofilm inhibition, mean
[10] = antibiotic alone, S. aureus biofilm inhibition
[11] = S. epidermidis, biofilm inhibition, mean
[12] = antibiotic alone, S. epidermidis biofilm inhibition
[13] = S. saprophyticus, biofilm inhibition, mean
[14] = antibiotic alone, S. saprophyticus biofilm inhibition
[15] = S. epidermidis biofilm eradication, antibiotic alone, mean MBEC
[16] = S. epidermidis, biofilm eradication, mean

Compound	MBC (S. aureus; antibiotics)	MIC (S. aureus)	MBC (S. saprophyticus; antibiotics)	MIC (S. saprophyticus)	minimal effective concentration (S. aureus biofilm [1])	minimal effective concentration (S. saprophyticus biofilm)	minimal effective concentration (S. epidermidis biofilm [2])	minimal effective concentration (S. aureus biofilm [3])	minimal effective concentration (S. epidermidis biofilm [4])	MBIC alone, ATB [5, 10]	MBIC alone, ATB [6, 11]	MBIC alone, ATB [6, 12]	MBIC alone, ATB [7, 13]	MBIC alone, ATB [7, 14]	MBEC Alone ATB [8, 15]	MBC (S. aureus; natural products)	MBC (S. saprophyticus; natural products)	also measured
NCC[C@H](O)C(=O)N[C@@H]1C[C@H](N)[C@@H](O[C@H]2O[C@H](CN)[C@@H](O)[C@H](O)[C@H]2O)[C@H](O)[C@H]1O[C@H]1O[C@H](CO)[C@@H](O)[C@H](N)[C@H]1O [Amikacin, amikacin]	> 128 µg/mL	4.33 µg/mL (≈ 7.39 µM)	> 128 µg/mL	22 µg/mL (≈ 37.6 µM)	1.83 µg/mL	2.08 µg/mL	3.08 µg/mL	13.3 µg/mL	21.3 µg/mL	1.83 µg/mL	3.08 µg/mL	3.08 µg/mL	2.08 µg/mL	2.08 µg/mL	21.33 µg/mL			MBIC alone, ATB [5, 9]: 1.83 µg/mL
CC1(C)S[C@@H]2[C@H](NC(=O)[C@H](N)c3ccc(O)cc3)C(=O)N2[C@H]1C(=O)O [Amoxicillin, amoxicillin]	> 128 µg/mL	86.7 µg/mL (≈ 237 µM)	> 128 µg/mL	22 µg/mL (≈ 60.2 µM)	1.5 µg/mL	9 µg/mL	2.08 µg/mL	37.3 µg/mL	16 µg/mL	1.5 µg/mL	2.08 µg/mL	2.08 µg/mL	8.33 µg/mL	8.33 µg/mL	16 µg/mL			
COc1ccc2cc3[n+](cc2c1OC)CCc1cc2c(cc1-3)OCO2 [Berberine, berberine]		139 µg/mL		149 µg/mL	171 µg/mL	85.3 µg/mL		149 µg/mL	171 µg/mL							> 1020 µg/mL	> 1020 µg/mL	MBIC alone, NPs ([5]; S. aureus biofilm inhibition): 170.66 µg/mL; MBIC alone, NPs [7, 13]: 106.66 µg/mL; MBIC alone, NPs ([7]; natural product alone, S. saprophyticus biofilm inhibition, listed as Ber): 74.66 µg/mL and 85.33 µg/mL and 106.66 µg/mL; MBEC Alone NPs ([8]; S. epidermidis biofilm eradication, mean MBEC, listed as Ber): 170.66 µg/mL and 149.33 µg/mL and 213.33 µg/mL
Cc1nnc(SCC2=C(C(=O)O)N3C(=O)[C@@H](NC(=O)Cn4cnnn4)[C@H]3SC2)s1 [Cefazolin, cefazolin]	> 128 µg/mL	42.7 µg/mL (≈ 93.9 µM)	> 128 µg/mL	64.7 µg/mL (≈ 142 µM)	4.66 µg/mL	8.53 µg/mL	8.66 µg/mL	42.7 µg/mL	10.7 µg/mL	4.66 µg/mL	8.66 µg/mL	8.66 µg/mL	8.33 µg/mL	8.33 µg/mL	10.66 µg/mL			MBIC alone, ATB [5, 9]: 4.66 µg/mL; MBEC Alone ATB [8, 16]: 42.66 µg/mL
C=CC1=C(C(=O)O)N2C(=O)[C@@H](NC(=O)/C(=N\OCC(=O)O)c3csc(N)n3)[C@H]2SC1 [Cefixime, cefixime]	> 128 µg/mL	213 µg/mL (≈ 470 µM)	> 128 µg/mL	192 µg/mL (≈ 423 µM)	64 µg/mL	48 µg/mL	64 µg/mL	42.7 µg/mL	42.7 µg/mL	64 µg/mL		64 µg/mL		48 µg/mL	42.66 µg/mL			
COc1cc(/C=C/C(=O)CC(=O)/C=C/c2ccc(O)c(OC)c2)ccc1O [Curcumin, curcumin]				171 µg/mL (≈ 463 µM)	107 µg/mL	107 µg/mL	128 µg/mL	149 µg/mL	107 µg/mL							> 1020 µg/mL	> 1020 µg/mL	MIC (S. aureus; 24 h): 244 µg/mL (≈ 661 µM); MBIC alone, NPs [6, 11]: 128 µg/mL; MBIC alone, NPs ([6]; natural product alone, S. epidermidis biofilm inhibition): 128 µg/mL; MBIC alone, NPs [7, 13]: 106.66 µg/mL; MBEC Alone NPs ([8]; S. epidermidis biofilm eradication, mean MBEC, listed as Cur): 106.66 µg/mL and 128 µg/mL
C[C@H]1c2cccc(O)c2C(=O)C2=C(O)[C@]3(O)C(=O)C(C(N)=O)=C(O)[C@@H](N(C)C)[C@@H]3[C@@H](O)[C@@H]21 [Doxycycline, doxycycline]	32.7 µg/mL (≈ 73.5 µM)	6.16 µg/mL (≈ 13.9 µM)	> 128 µg/mL	32.2 µg/mL (≈ 72.4 µM)	2.16 µg/mL	0.5 µg/mL	3.08 µg/mL	16 µg/mL	16 µg/mL	2.16 µg/mL			0.5 µg/mL	0.5 µg/mL	16 µg/mL			MBIC alone, ATB ([6]; antibiotic alone, S. epidermidis biofilm inhibition, listed as Dox): 3.08 µg/mL and 3.41 µg/mL; MBEC Alone ATB [8, 16]: 16 µg/mL
O=c1c(O)c(-c2ccc(O)c(O)c2)oc2cc(O)cc(O)c12 [Quercetin, quercetin]		341 µg/mL (≈ 1130 µM)		341 µg/mL (≈ 1130 µM)	512 µg/mL	427 µg/mL	512 µg/mL	128 µg/mL	299 µg/mL							> 1020 µg/mL	> 1020 µg/mL	MBIC alone, NPs ([5]; S. aureus biofilm inhibition, listed as Que): 426.66 µg/mL and 512 µg/mL and 362.66 µg/mL; MBIC alone, NPs ([6]; natural product alone, S. epidermidis biofilm inhibition, listed as Que): 512 µg/mL and 384 µg/mL; MBIC alone, NPs ([7]; natural product alone, S. saprophyticus biofilm inhibition, listed as Que): 426.66 µg/mL and 512 µg/mL
